# Measured values: article PMC3656124, “DNA Topoisomerase II Is Involved in Regulation of Cyst Wall Protein Genes and Differentiation in Giardia lamblia” (PLoS Neglected Tropical Diseases, 2013)
# Molecular target: T1, Topo II (Giardia duodenalis, UniProt E2RU90)
# T1 construct: gene GL50803_0016975
# T1 sequence (E2RU90 1-1491): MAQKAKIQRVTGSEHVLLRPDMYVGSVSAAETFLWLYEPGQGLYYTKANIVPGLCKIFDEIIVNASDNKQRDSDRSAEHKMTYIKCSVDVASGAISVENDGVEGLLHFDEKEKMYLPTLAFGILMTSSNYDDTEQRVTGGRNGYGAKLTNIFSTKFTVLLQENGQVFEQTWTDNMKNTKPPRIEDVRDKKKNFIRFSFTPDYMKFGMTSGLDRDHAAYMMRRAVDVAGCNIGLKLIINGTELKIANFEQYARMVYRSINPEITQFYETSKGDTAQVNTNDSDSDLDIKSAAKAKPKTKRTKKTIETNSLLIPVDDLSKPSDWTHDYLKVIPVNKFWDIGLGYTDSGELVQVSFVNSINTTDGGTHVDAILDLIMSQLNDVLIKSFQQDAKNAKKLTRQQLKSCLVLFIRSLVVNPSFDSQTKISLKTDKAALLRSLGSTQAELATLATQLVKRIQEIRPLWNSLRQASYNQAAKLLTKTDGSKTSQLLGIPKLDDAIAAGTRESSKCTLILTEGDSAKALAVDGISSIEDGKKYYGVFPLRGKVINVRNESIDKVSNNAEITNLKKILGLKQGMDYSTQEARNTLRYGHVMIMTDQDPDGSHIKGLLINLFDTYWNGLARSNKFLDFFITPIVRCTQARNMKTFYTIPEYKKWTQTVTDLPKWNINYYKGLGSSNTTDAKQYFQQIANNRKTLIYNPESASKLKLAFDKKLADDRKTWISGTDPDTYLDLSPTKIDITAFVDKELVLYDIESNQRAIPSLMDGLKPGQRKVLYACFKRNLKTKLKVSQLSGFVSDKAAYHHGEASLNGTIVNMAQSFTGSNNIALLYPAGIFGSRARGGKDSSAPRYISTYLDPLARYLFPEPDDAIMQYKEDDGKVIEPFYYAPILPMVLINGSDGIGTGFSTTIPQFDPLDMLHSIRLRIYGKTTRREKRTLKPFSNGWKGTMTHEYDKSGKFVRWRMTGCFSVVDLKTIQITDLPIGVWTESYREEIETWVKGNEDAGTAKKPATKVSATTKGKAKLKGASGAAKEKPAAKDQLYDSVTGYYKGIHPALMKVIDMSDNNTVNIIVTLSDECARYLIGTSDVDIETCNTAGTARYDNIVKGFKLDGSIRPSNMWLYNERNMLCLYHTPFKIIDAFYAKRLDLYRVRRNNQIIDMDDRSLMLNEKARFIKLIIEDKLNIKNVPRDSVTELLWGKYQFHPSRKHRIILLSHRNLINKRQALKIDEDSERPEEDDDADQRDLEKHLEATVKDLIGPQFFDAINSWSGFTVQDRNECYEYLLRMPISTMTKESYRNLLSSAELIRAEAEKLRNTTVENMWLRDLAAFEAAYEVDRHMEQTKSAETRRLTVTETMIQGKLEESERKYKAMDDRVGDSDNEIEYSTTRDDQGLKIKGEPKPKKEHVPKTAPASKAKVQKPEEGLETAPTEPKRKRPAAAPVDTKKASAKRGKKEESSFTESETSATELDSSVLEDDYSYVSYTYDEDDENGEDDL
# Test: pUC119 plasmid DNA cleavage assay, agarose gel
# Format: biochemical
# Settings: 12 mM etoposide in Me2SO (Me2SO alone also raised cleavage); 5 mM Mg2+, pH 7.5, 37 °C; traps cleavage complex
smiles,measurement,value
COc1cc([C@@H]2c3cc4c(cc3[C@@H](O[C@@H]3O[C@@H]5CO[C@@H](C)O[C@H]5[C@H](O)[C@H]3O)[C@H]3COC(=O)[C@H]23)OCO4)cc(OC)c1O [etoposide],increase of DNA cleavage activity,addition of etoposide slightly increased DNA cleavage activity of Topo II
